From article PMC9718554, “Discovery of a fragment hit compound targeting D-Ala:D-Ala ligase of bacterial peptidoglycan biosynthesis” (Journal of Enzyme Inhibition and Medicinal Chemistry, 2022) come the findings set out here.

Like-named read-outs stand apart in the source and are kept apart here.

Data set [1] in a line: Solubility at tested concentrations (fragment library screening). In kind it is physicochemical. An excerpt: Supplement IENZ_A_2149745_SM2502.zip/DDlB_CDR05_SI_20221103.xlsx, sheet "Fragment library screening" | column: Solubility at tested concentrations
Data set [2] concerns the target T1, E. coli DdlB enzyme (D-alanine:D-alanine ligase) (Escherichia coli, UniProt P07862).
T1 construct: made in house; host or cells: E. coli
The experiment in a line: biochemical. Conditions: read-out: DdlB RA; for remaining activity at 2200 µM: tested concentration 2.2 mM; for remaining activity at 2000 µM: tested concentration 2.0 mM; for remaining activity at 1900 µM: tested concentration 1.9 mM; for remaining activity at 1700 µM: tested concentration 1.7 mM; for remaining activity at 2300 µM: tested concentration 2.3 mM; for remaining activity at 2100 µM: tested concentration 2.1 mM; for remaining activity at 1800 µM: tested concentration 1.8 mM; for remaining activity at 2400 µM: tested concentration 2.4 mM; for remaining activity at 2500 µM: tested concentration 2.5 mM.

[3] abbreviates: residual activity of DdlB, fragment library screening.

Turning to `CC(C)c1ccc(C(=O)Nc2nnc[nH]2)cc1` [Compound Y200-5752], the “Solubility at tested concentrations” value in data set [1] (tested concentration 2.2 mM) is on record as “not soluble”. Besides, the remaining activity at 2200 µM in data set [2] (residual activity) came out at 52%.
For `O=[N+]([O-])c1cc(Cl)c(O)c2ncccc12` [Compound 8017-0599], in that order: “not soluble” and 55%.
As for `O=C(Cc1ccccc1[N+](=O)[O-])Nc1nnc[nH]1` [Compound 7882-1936], the “Solubility at tested concentrations” value in data set [1] (tested concentration 2.0 mM) is on record as “not soluble”. In addition, in data set [2] (residual activity), the remaining activity at 2000 µM amounted to 118%.
Take `Oc1cccc(/C=C/c2ccc3cccc(O)c3n2)c1` [Compound 5617-0440]: the “Solubility at tested concentrations” value in data set [1] (tested concentration 1.9 mM) is reported as “not soluble”. In data set [2] (residual activity), the remaining activity at 1900 µM turned out to be 55%.
For the compound `O=C(N/N=C/c1ccc2cccc(O)c2n1)c1ccccc1` [Compound 4539-0001], the “Solubility at tested concentrations” value in data set [1] (tested concentration 1.7 mM) is recorded as “not soluble”. Besides, the remaining activity at 1700 µM in data set [2] (residual activity) amounted to 49%.
In the case of `Cc1cc(N)nn1CC(=O)O` [Compound Y504-8763], the “Solubility at tested concentrations” value in data set [1] (tested concentration 3.2 mM) was “not soluble”. In addition, the remaining activity at 3200 µM in data set [2] (tested concentration 3.2 mM) stood at 57%.
Consider `Cc1cc(C2CCCN2Cc2ccccc2O)on1` (stereo not shown) [Compound J006-2498], for which the “Solubility at tested concentrations” value in data set [1] (tested concentration 2.3 mM) was “not soluble”. The remaining activity at 2300 µM in data set [2] is 90%.
As for `Oc1cccc2ccc(Nc3ccccn3)nc12` [Compound 0422-0008], the “Solubility at tested concentrations” value in data set [1] (tested concentration 2.1 mM) is on record as “not soluble”. For the same compound, the remaining activity at 2100 µM in data set [2] (residual activity) came out at 31%.
On to `COc1ccc(-c2ncc(C(=O)O)c(=O)[nH]2)cc1OC` [Compound 8020-2710], for which the “Solubility at tested concentrations” value in data set [1] (tested concentration 1.8 mM) is reported as “not soluble”. The remaining activity at 1800 µM in data set [2] (residual activity) turned out to be 91%.
Turning to `Oc1cccc2c1nnc1nc(-c3cccnc3)nn12` [Compound Y021-2955], in data set [1] (tested concentration 1.9 mM), the “Solubility at tested concentrations” value was “not soluble”. Moreover, the remaining activity at 1900 µM in data set [2] (residual activity) amounted to 45%.
For `N#Cc1c2c([nH]c(=O)c1C(=O)O)CCCC2` [Compound 8020-6318], the “Solubility at tested concentrations” value in data set [1] (tested concentration 2.3 mM) is “not soluble”. For the same compound, the remaining activity at 2300 µM in data set [2] (residual activity) came to 93%.
`Cc1cc(C)cc(NC(=O)c2ccc3cccc(O)c3n2)c1` [Compound G900-0230]: the “Solubility at tested concentrations” value in data set [1] (tested concentration 1.7 mM) is on record as “not soluble”. In addition, the remaining activity at 1700 µM in data set [2] stood at 92%.
On to `Cc1c(Cl)ccc(S(N)(=O)=O)c1Cl` [Compound 8011-1291], for which the “Solubility at tested concentrations” value in data set [1] (tested concentration 2.1 mM) is given as “not soluble”. In addition, in data set [2], the remaining activity at 2100 µM was 69%.
In the case of `CCOc1ccc2c(c1)cc(C(=O)NC)n2C` [Compound D291-1849], in data set [1] (tested concentration 2.6 mM), the “Solubility at tested concentrations” value was “not soluble”. Also, in data set [2] (tested concentration 2.6 mM), the remaining activity at 2600 µM is 95%.
Take `Cc1ccc(-c2csc(NC(=O)CO)n2)cc1` [Compound 8005-2972]: the “Solubility at tested concentrations” value in data set [1] (tested concentration 2.0 mM) is on record as “not soluble”. Also, the remaining activity at 2000 µM in data set [2] (residual activity) came out at 88%.
For `Cc1ccc(-c2nc(O)nc3ccccc23)cc1` [Compound 3740-0006], the “Solubility at tested concentrations” value in data set [1] (tested concentration 2.1 mM) was “not soluble”. Further, the remaining activity at 2100 µM in data set [2] (residual activity) was 83%.
As to `CCC(C)(C)Nc1c(-c2ccccc2)c(=O)c1=O` [Compound E470-0411], the “Solubility at tested concentrations” value in data set [1] (tested concentration 2.1 mM) is “not soluble”. The remaining activity at 2100 µM in data set [2] turned out to be 48%.
For `O=C(N/N=C/c1ccc2cccc(O)c2n1)c1ccncc1` [Compound 8006-6830], the “Solubility at tested concentrations” value in data set [1] (tested concentration 1.7 mM) is on record as “not soluble”. Further, in data set [2] (residual activity), the remaining activity at 1700 µM amounted to 71%.
For the compound `O=C(N/N=C/c1ccc2cccc(O)c2n1)c1ccco1` [Compound 8006-5465], the “Solubility at tested concentrations” value in data set [1] (tested concentration 1.8 mM) was “not soluble”. Moreover, the remaining activity at 1800 µM in data set [2] (residual activity) is 72%.
Turning to `O=C(O)c1cnc2c(OC(F)(F)F)cccc2c1O` [Compound Y042-3118], the “Solubility at tested concentrations” value in data set [1] (tested concentration 1.8 mM) is recorded as “not soluble”. Also, the remaining activity at 1800 µM in data set [2] (residual activity) came out at 88%.
As for `O=C(Cc1ccc(Cl)cc1)Nc1nnc[nH]1` [Compound 7881-1517], the “Solubility at tested concentrations” value in data set [1] (tested concentration 2.1 mM) is reported as “not soluble”. Also, in data set [2] (residual activity), the remaining activity at 2100 µM amounted to 79%.
For the compound `Oc1ccccc1/N=C/c1ccc2cccc(O)c2n1` [Compound 0422-0036], the “Solubility at tested concentrations” value in data set [1] (tested concentration 1.9 mM) was “not soluble”. The remaining activity at 1900 µM in data set [2] (residual activity) was found to be 79%.
For `Oc1nc(-c2ccc(Cl)cc2)c2ccccc2n1` [Compound 3740-0004], in that order: “not soluble” and 83%.
On to `Cc1cc(C)c2c(=O)[nH]n(C3CCCCCC3)c2n1` [Compound 8016-0079], for which the “Solubility at tested concentrations” value in data set [1] (tested concentration 2.3 mM) is given as “not soluble”. Moreover, the remaining activity at 2300 µM in data set [2] amounted to 81%.
Consider `Oc1c(Cl)cc(Cl)c2ccc(Cl)nc12` [Compound 0422-0102], for which the “Solubility at tested concentrations” value in data set [1] (tested concentration 2.0 mM) was “not soluble”. Further, in data set [2] (residual activity), the remaining activity at 2000 µM worked out at 99%.
As for `Oc1cccc2ccc(/C=C/c3ccc4c(c3)OCO4)nc12` [Compound 4896-3346], the “Solubility at tested concentrations” value in data set [1] (tested concentration 1.7 mM) is “not soluble”. Further, the remaining activity at 1700 µM in data set [2] (residual activity) was found to be 139%.
For the compound `O=C(Cc1c[nH]c2ncccc12)NCC1CCCCC1` [Compound M508-0609], the “Solubility at tested concentrations” value in data set [1] (tested concentration 1.8 mM) is given as “not soluble”. Moreover, the remaining activity at 1800 µM in data set [2] (residual activity) worked out at 92%.
Turning to `Nc1cc(Br)cc2cccnc12` [Compound 8009-3726], in data set [1] (tested concentration 2.2 mM), the “Solubility at tested concentrations” value is given as “not soluble”. Besides, the remaining activity at 2200 µM in data set [2] turned out to be 89%.
Regarding `CCc1cccc(NC(=O)c2ccc3cccc(O)c3n2)c1` [Compound G900-0169], the “Solubility at tested concentrations” value in data set [1] (tested concentration 1.7 mM) is “not soluble”. Besides, the remaining activity at 1700 µM in data set [2] stood at 69%.
Turning to `COc1cccc2c1ncc1c(=O)n3cccc(O)c3nc12` [Compound 8018-0164], the “Solubility at tested concentrations” value in data set [1] (tested concentration 1.7 mM) is “not soluble”. In addition, the remaining activity at 1700 µM in data set [2] was 72%.
With `CCc1cccc2c(=O)c(C(=O)O)c[nH]c12` [Compound 2595-1123], in data set [1] (tested concentration 2.3 mM), the “Solubility at tested concentrations” value is “not soluble”. In data set [2] (residual activity), the remaining activity at 2300 µM came to 47%.
Regarding `O=C(NC1CCCCC1)c1ccc2cccc(O)c2n1` [Compound G900-0104], the “Solubility at tested concentrations” value in data set [1] (tested concentration 1.8 mM) is reported as “not soluble”. In data set [2] (residual activity), the remaining activity at 1800 µM turned out to be 80%.
`O=[N+]([O-])c1cc(Cl)c2cccnc2c1O` [Compound 8011-4676]: the “Solubility at tested concentrations” value in data set [1] (tested concentration 2.2 mM) was “not soluble”. The remaining activity at 2200 µM in data set [2] (residual activity) was 49%.
Turning to `Cc1ccc(CS(=O)(=O)N2CCCCC2)cc1` [Compound Y300-3037], in data set [1] (tested concentration 2.4 mM), the “Solubility at tested concentrations” value is given as “not soluble”. Besides, the remaining activity at 2400 µM in data set [2] was 88%.
Regarding `CSc1nc(N)n[nH]1` [FLD128], in data set [2] (setting [3]), the remaining activity at 2500 µM was found to be 97%.
`CCCC(C)C(=O)Nc1ccc(S(N)(=O)=O)cc1` (stereo not shown) [Compound Y030-4922]: in data set [2], the remaining activity at 1800 µM was found to be 77%.
As to `O=C(C1CCCN(C(=O)C2CCC2)C1)N1CCOCC1` (stereo not shown) [Compound P773-6398], in data set [2] (residual activity), the remaining activity at 2000 µM came to 98%.
In the case of `Cc1cc(C)n(CCO)c(=O)n1` [Compound 8012-5852], in data set [2] (setting [3]), the remaining activity at 2400 µM turned out to be 94%.
In the case of `O=C(O)CCc1cccnc1` [FLD141], the remaining activity at 2500 µM in data set [2] (setting [3]) came out at 95%.
For `Cn1nnc(-c2ccc(C(=O)O)c(N)c2)n1` [Compound 8019-8673], the remaining activity at 2300 µM in data set [2] (residual activity) amounted to 115%.
Regarding `Cc1nc(C#N)c(N2CCOCC2)o1` [Compound 8008-9715], the remaining activity at 3100 µM in data set [2] (tested concentration 3.1 mM) amounted to 93%.
As for `Cc1noc(C)c1S(=O)(=O)N1CC(n2ccnc2)C1` [Compound S695-2555], the remaining activity at 2100 µM in data set [2] (residual activity) is 97%.
